This is an account of results in patent US20110008347A1, “CANCER-RELATED PROTEIN KINASES” (Agency for Science ,Technology and Research, priority 2006, published 2011).

The subject of one data set is HuH7 cells. The data set is described as follows: AFP production in HuH7 cells after exposure to FGFR inhibitor. It is filed as cell-based, human. As to conditions: HuH7, 0, 1, 5 and 10 μM (FIG. 15). The method, then: (§1) Supernatants from the respective FGF19 stimulation and siRNA experiments were subjected to AFP ELISA assay using the DELFIA hAFP kit (Perkin Elmer, Boston, Mass.), performed according to manufacturer's protocol. The readout was converted to concentration (ng/mL) using the standard curve derived from the solutions provided in the kit. AFP production by the cells was subsequently normalized to the number of cells in each well. The cell number was determined by ATP bioluminescence Cell-Titer Glo assay (Promega, Madison, Wis.) using protocol as described by the manufacturer.

The test system of a further data set is HEK293. The data set is described as follows: Viability of non-cancerous cell line HEK293 exposed to FGFR inhibitor. In kind it is cell-based. Particulars: non-cancerous cell line HEK293, data not shown.
A further data set relates to HuH7. Kind of data set: Viability of HCC cell lines (HuH7) exposed to FGFR inhibitor. It is filed as cell-based, human.
Data set [1] concerns the target T1, FGFR4 (Homo sapiens, UniProt P22455). The data set is described as follows: FGF19 ligand stimulation, AFP ELISA, HepG2. Also on record: endogenous in cells. Particulars: HepG2, 50 and 100 ng/ml FGF19 (FIG. 12). In kind it is cell-based. The method, then: (§2) HepG2 or HuH7 cells were seeded into 96-well plates and allowed to attach overnight. They were serum-starved for 24 h before addition of heparin. Two hours later, FGF19 (R&D Systems, Minneapolis, Minn., 50-100 ng/mL final concentration) was administered. After 8 hours, aliquots of the supernatant were harvested for AFP ELISA assay as described below. Similar FGF19 stimulations were performed in 10 cm dishes for immunoblot detection of phospho-FRS2α.
as §1
In general terms: In an ELISA, binding on a coated surface is turned into a signal by an enzyme label.

In data set [2] the target is T1, FGFR4. Kind of data set: FGF19 ligand stimulation, AFP ELISA, HuH7. In kind it is cell-based. Also on record: stimulation of FGFR4 in the HCC cell line HuH7 using 50 and 100 ng/ml of the specific ligand FGF19; endogenous in cells; host or cells: HuH7. The method, then: as §2, §1

T1 sequence (P22455 22-802): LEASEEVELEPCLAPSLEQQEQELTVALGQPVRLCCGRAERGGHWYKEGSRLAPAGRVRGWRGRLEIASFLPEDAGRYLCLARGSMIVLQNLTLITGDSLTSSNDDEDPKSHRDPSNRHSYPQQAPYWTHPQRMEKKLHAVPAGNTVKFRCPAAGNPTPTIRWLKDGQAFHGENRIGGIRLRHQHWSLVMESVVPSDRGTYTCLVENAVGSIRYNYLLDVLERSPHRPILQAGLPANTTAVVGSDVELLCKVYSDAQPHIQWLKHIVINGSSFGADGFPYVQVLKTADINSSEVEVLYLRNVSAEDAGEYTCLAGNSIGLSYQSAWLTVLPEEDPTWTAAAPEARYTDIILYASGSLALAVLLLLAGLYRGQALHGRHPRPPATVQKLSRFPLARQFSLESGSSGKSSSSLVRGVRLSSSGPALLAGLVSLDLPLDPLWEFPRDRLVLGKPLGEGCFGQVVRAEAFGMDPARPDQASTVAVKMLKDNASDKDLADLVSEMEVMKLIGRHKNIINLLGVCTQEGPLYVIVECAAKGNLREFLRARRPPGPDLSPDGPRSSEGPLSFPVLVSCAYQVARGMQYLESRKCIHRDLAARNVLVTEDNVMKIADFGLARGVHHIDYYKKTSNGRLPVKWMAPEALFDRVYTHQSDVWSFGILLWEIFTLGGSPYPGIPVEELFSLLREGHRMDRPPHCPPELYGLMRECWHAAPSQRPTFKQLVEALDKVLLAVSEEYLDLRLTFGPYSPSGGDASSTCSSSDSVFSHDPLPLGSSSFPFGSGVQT

In the case of `CCN(CC)CCCCNc1ncc2cc(-c3cc(OC)cc(OC)c3)c(NC(=O)NC(C)(C)C)nc2n1` [PD173074], the AFP production result with HuH7 cells is “blocks AFP production”. Moreover, the LD50 with HEK293 was over 50 µM. Also, the anti-proliferative effect entry in the data set with HuH7 (HCC cell lines vs. non-cancerous cell line HEK293) is “exquisite anti-proliferative effect”. Further, in the data set on HuH7 (HuH7 (FIG. 16)), the “anti-proliferative effect (viability)” value is “exquisite anti-proliferative effect”.

With “FGF19: specific ligand used for stimulation of FGFR4 (R&D Systems)”, the AFP production entry with FGFR4 [1] was “elevated AFP production”; with FGFR4 [2] (HCC cell lines (FIG. 11, FIG. 12)), “elevated AFP production”; with FGFR4 [2] (HuH7, 50 and 100 ng/ml FGF19 (FIG. 11)), “elevated AFP production”.
